# In the supplement of paper PMC4862054:
# How the values were obtained:
# Conditions in all cases: incubation time: 72 h
# MDA-MB-231 = assay: normalised viability (% of control), CellTiter-Blue; higher = more viable cells (about 100 = DMSO control)
# Description: (§1)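 DSRT, CellTiter-Blue viability, 72 h incubation. Signal is normalised to DMSO and benzethonium chloride controls. Value is the normalised response at dose 3.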
# SK-BR-3 = assay: as above
# Description: as §1
# MDA-MB-436 = assay: as above
# Description: as §1
# CAL-120 = assay: as above
# Description: as §1
# MDA-MB-468 = assay: as above
# Description: as §1
# DU-4475 [1] = assay: as above
# Description: as §1
# BT-474 = assay: as above
# Description: as §1
# BT-549 = assay: as above
# Description: as §1
# HDQ-P1 = assay: as above
# Description: as §1
# CAL-85-1 = assay: as above
# Description: as §1
# MFM-223 = assay: as above
# Description: as §1
# HCC1599 = assay: as above
# Description: as §1
# MDA-MB-453 = assay: as above
# Description: as §1
# CAL-51 = assay: as above
# Description: as §1
# HCC1937 = assay: as above
# Description: as §1
# CAL-148 = assay: as above
# Description: as §1
# Hs578T = assay: as above
# Description: as §1
# HCC1143 = assay: drug sensitivity score (DSS), CellTiter-Glo (DSS (AUC-based score)); higher = stronger drug effect (viability inhibition or cytotoxicity); extreme values may be limits of the assay
# Outline: (§2)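 After 72 h of incubation in 384-well plates with compound at 5 concentrations (10-fold steps, 10,000-fold range set per compound), breast cancer cell lines seeded in 20 µl suspension were read first for CellTox Green fluorescence at 485/520 nm. CellTiter-Glo luminescence was measured next, after 10 min at room temperature. Normalisation on each plate used 0.1 % DMSO and a positive kill control, and the drug sensitivity score was computed from the area under the fitted dose-response curve.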
# DU-4475 [2] = assay: as above
# Outline: as §2
SMILES,drug sensitivity score (HCC1143),drug sensitivity score (DU-4475 [2]),normalised viability (MDA-MB-231; 100 nM) [%],normalised viability (SK-BR-3; 100 nM) [%],normalised viability (MDA-MB-436; 100 nM) [%],normalised viability (CAL-120; 100 nM) [%],normalised viability (MDA-MB-468; 100 nM) [%],normalised viability (DU-4475 [1]; 10 nM) [%],normalised viability (BT-474; 100 nM) [%],normalised viability (BT-549; 100 nM) [%],normalised viability (HDQ-P1; 10 nM) [%],normalised viability (CAL-85-1; 10 nM) [%],normalised viability (MFM-223; 100 nM) [%],normalised viability (HCC1599; 100 nM) [%],normalised viability (MDA-MB-453; 10 nM) [%],normalised viability (CAL-51; 10 nM) [%],normalised viability (HCC1937; 100 nM) [%],normalised viability (CAL-148; 10 nM) [%],normalised viability (Hs578T; 100 nM) [%],also measured
Nc1nc(=O)c2c([nH]1)NCC(CNc1ccc(C(=O)N[C@@H](CCC(=O)O)C(=O)O)cc1)N2C=O (mixture of isomers) [Folinic acid],–,–,–,–,–,–,–,–,–,–,–,–,–,–,–,–,–,–,–,normalised viability (MDA-MB-231; 9.9 nM): 103%; normalised viability (SK-BR-3; 9.9 nM): 104%; normalised viability (MDA-MB-436; 9.9 nM): 128%; normalised viability (CAL-120; 9.9 nM): 111%; normalised viability (MDA-MB-468; 9.9 nM): 119%; normalised viability (DU-4475 [1]; 0.99 nM): 105%; normalised viability (BT-474; 9.9 nM): 121%; normalised viability (BT-549; 9.9 nM): 101%; normalised viability (HDQ-P1; 0.99 nM): 140%; normalised viability (CAL-85-1; 0.99 nM): 106%; normalised viability (MFM-223; 9.9 nM): 95.5%; normalised viability (HCC1599; 9.9 nM): 108%; normalised viability (MDA-MB-453; 0.99 nM): 104%; normalised viability (CAL-51; 0.99 nM): 98.4%; normalised viability (HCC1937; 9.9 nM): 110%; normalised viability (CAL-148; 0.99 nM): 88.3%; normalised viability (Hs578T; 9.9 nM): 96%
Nc1ccccc1NC(=O)c1ccc(CNc2nccc(-c3cccnc3)n2)cc1 [Mocetinostat],5.67,9,84.3,83.9,81.2,53.6,129,91,95.1,81.6,117,91.2,80.7,86.9,94.2,98.2,79.2,111,80.8,–
CCC/C=C/C=C/C(=O)O[C@H]1/C(=C/C(=O)OC)C[C@H]2C[C@H]([C@@H](C)O)OC(=O)C[C@H](O)C[C@@H]3C[C@H](OC(C)=O)C(C)(C)[C@](O)(C[C@@H]4C/C(=C/C(=O)OC)C[C@H](/C=C/C(C)(C)[C@]1(O)O2)O4)O3 [Bryostatin 1],0,0,97.2,84.1,–,–,101,–,102,–,–,–,–,–,–,–,103,–,–,normalised viability (MDA-MB-436; 1 nM): 126%; normalised viability (CAL-120; 1 nM): 85.4%; normalised viability (DU-4475 [1]; 0.1 nM): 92.1%; normalised viability (BT-549; 1 nM): 94.8%; normalised viability (HDQ-P1; 0.1 nM): 106%; normalised viability (CAL-85-1; 0.1 nM): 124%; normalised viability (MFM-223; 1 nM): 98.7%; normalised viability (HCC1599; 1 nM): 110%; normalised viability (MDA-MB-453; 0.1 nM): 99%; normalised viability (CAL-51; 0.1 nM): 102%; normalised viability (CAL-148; 0.1 nM): 90.7%; normalised viability (Hs578T; 1 nM): 63%
Cc1c(CN2CCN(C(=O)[C@H](C)O)CC2)sc2c(N3CCOCC3)nc(-c3cnc(N)nc3)nc12 [GDC-0980],11.4,6.71,59.2,45.3,85.6,71.7,85.3,92.7,90.2,81.9,94,100,65.4,67.8,96.1,101,76.7,96.2,82.2,–
CO[C@@H](C(=O)N1Cc2[nH]nc(NC(=O)c3ccc(N4CCN(C)CC4)cc3)c2C1)c1ccccc1 [Danusertib],5.41,5.98,79,62.4,95.1,64.8,59.4,91,80.8,102,104,93.6,44,77.2,79.6,105,99.9,79.9,67.1,–
O=C(Nc1c[nH]nc1-c1nc2ccc(CN3CCOCC3)cc2[nH]1)NC1CC1 [AT9283],2.84,1.31,75.2,53,99,57.3,29.4,97.5,112,86,112,85.7,64,94.8,82.5,100,60.9,82.7,64.4,–
C[C@]12C=CC(=O)C=C1CC[C@@H]1[C@@H]2[C@@H](O)C[C@@]2(C)[C@H]1CC[C@]2(O)C(=O)CO [Prednisolone],0,0,114,60.8,96.6,79.9,108,101,102,104,108,109,97,102,105,98.4,94,111,81.3,–
Cc1cccc(-c2nn3c(c2-c2ccnc4ccc(C(N)=O)cc24)CCC3)n1,–,–,–,–,–,–,–,–,–,–,–,–,–,–,–,–,–,–,–,normalised viability (MDA-MB-231; 10 nM): 99%; normalised viability (SK-BR-3; 10 nM): 98.9%; normalised viability (MDA-MB-436; 10 nM): 127%; normalised viability (CAL-120; 10 nM): 95.1%; normalised viability (MDA-MB-468; 10 nM): 110%; normalised viability (DU-4475 [1]; 1 nM): 90.5%; normalised viability (BT-474; 10 nM): 107%; normalised viability (BT-549; 10 nM): 96.4%; normalised viability (HDQ-P1; 1 nM): 106%; normalised viability (CAL-85-1; 1 nM): 97.7%; normalised viability (MFM-223; 10 nM): 96.8%; normalised viability (HCC1599; 10 nM): 101%; normalised viability (MDA-MB-453; 1 nM): 112%; normalised viability (CAL-51; 1 nM): 96.1%; normalised viability (HCC1937; 10 nM): 122%; normalised viability (CAL-148; 1 nM): 99%; normalised viability (Hs578T; 10 nM): 96.2%
CC[C@@]1(O)C(=O)OCc2c1cc1n(c2=O)Cc2cc3c(CN(C)C)c(O)ccc3nc2-1 [Topotecan],9.67,14.6,–,–,–,–,–,–,–,–,–,–,–,–,–,–,–,–,–,normalised viability (MDA-MB-231; 10 nM): 90.1%; normalised viability (SK-BR-3; 10 nM): 85.5%; normalised viability (MDA-MB-436; 10 nM): 107%; normalised viability (CAL-120; 10 nM): 76.4%; normalised viability (MDA-MB-468; 10 nM): 93%; normalised viability (DU-4475 [1]; 1 nM): 92.6%; normalised viability (BT-474; 10 nM): 121%; normalised viability (BT-549; 10 nM): 107%; normalised viability (HDQ-P1; 1 nM): 114%; normalised viability (CAL-85-1; 1 nM): 91.2%; normalised viability (MFM-223; 10 nM): 92.1%; normalised viability (HCC1599; 10 nM): 109%; normalised viability (MDA-MB-453; 1 nM): 101%; normalised viability (CAL-51; 1 nM): 96.5%; normalised viability (HCC1937; 10 nM): 81.3%; normalised viability (CAL-148; 1 nM): 96.4%; normalised viability (Hs578T; 10 nM): 101%
CS(=O)(=O)N1CCN(Cc2cc3nc(-c4cccc5[nH]ncc45)nc(N4CCOCC4)c3s2)CC1 [GDC-0941],–,–,83.2,58.7,91.6,75.5,84.2,108,102,92.8,101,90.7,82,69.2,–,109,99.1,85.6,89.1,–
